Reference: patent US9182666B2, “Cyclic compound, method for producing the same, radiation-sensitive composition, and resist pattern formation method” (MITSUBISHI GAS CHEMICAL COMPANY, INC., priority 2011, dated 2015)

Test: Solubility test of compound in safe solvent
Format: physicochemical
Conditions: 23° C.; for dissolution amount in CHN: cyclohexanone (CHN); for dissolution amount in PGME: propylene glycol monomethyl ether (PGME)
Procedure: The dissolution amounts of compounds obtained in the above synthesis examples 1 to 6 and syntheses 1 and 2 in propylene glycol monomethyl ether (PGME) and cyclohexanone (CHN) were evaluated as follows.
• A: 5.0% by mass≦dissolution amount • B: 3.0% by mass≦dissolution amount<5.0% by mass • C: dissolution amount<3.0% by mass *dissolution amount (% by mass)=mass (g) of compound dissolved in 100 g of solvent of 23° C./(100 g of mass of solvent+mass (g) of compound dissolved in 100 g of solvent of 23° C.)×100

Row | Structure (SMILES) | dissolution amount in CHN | dissolution amount in PGME
1 | CC(C)c1ccc(C2c3cc(c(O)cc3O)C(c3ccc(C(C)C)cc3)c3cc(c(O)cc3O)C(c3ccc(C(C)C)cc3)c3cc(c(O)cc3O)C(c3ccc(C(C)C)cc3)c3cc2c(O)cc3O)cc1 (stereo not shown) [CR-1A] | C (dissolution amount<3.0% by mass) | B (3.0% by mass≦dissolution amount<5.0% by mass)
2 | Oc1cc(O)c2cc1C(c1ccc(C3CCCCC3)cc1)c1cc(c(O)cc1O)C(c1ccc(C3CCCCC3)cc1)c1cc(c(O)cc1O)C(c1ccc(C3CCCCC3)cc1)c1cc(c(O)cc1O)C2c1ccc(C2CCCCC2)cc1 (stereo not shown) [CR-2A] | B (3.0% by mass≦dissolution amount<5.0% by mass) | B (3.0% by mass≦dissolution amount<5.0% by mass)
